Data set [1] deals with T1, Histamine H3 receptor (Mus musculus, UniProt P58406). As to the kind of experiment: Inverse agonist activity at mouse histamine H3 receptor overexpressed in HEK293 cells by [35S]GTPgammaS binding assay. Type of data set: functional, cell-based.
For data set [2], the target named is Histamine H3 receptor (Mus musculus) (UniProt P58406). Kind of data set: Inverse agonist activity at mouse histamine H3 receptor overexpressed in HEK293 cells by [35S]GTPgammaS binding assay relative to basal level. In kind it is functional, cell-based. The note with it: concentration not given here. On the technique in general: Binding of GTPγS marks nucleotide exchange on a G protein.
Histamine H3 receptor (Mus musculus), sequence (P58406 whole entry): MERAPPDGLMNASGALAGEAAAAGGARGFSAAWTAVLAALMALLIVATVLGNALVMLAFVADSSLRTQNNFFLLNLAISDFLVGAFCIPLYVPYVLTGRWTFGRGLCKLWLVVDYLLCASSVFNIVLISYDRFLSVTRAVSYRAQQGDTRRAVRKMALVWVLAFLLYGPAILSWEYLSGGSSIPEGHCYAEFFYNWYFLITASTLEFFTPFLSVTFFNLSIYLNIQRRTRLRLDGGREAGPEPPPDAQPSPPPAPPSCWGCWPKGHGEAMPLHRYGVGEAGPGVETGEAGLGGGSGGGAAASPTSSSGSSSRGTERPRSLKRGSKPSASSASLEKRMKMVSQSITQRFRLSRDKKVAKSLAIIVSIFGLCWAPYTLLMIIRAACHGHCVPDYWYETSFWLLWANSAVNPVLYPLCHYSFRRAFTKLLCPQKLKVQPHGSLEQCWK

In data set [3] the target is T1, Histamine H3 receptor. Kind of data set: biochemical.
The subject of data set [4] is Brain. Kind of data set: Drug level in Sprague-Dawley rat brain at 10 mg/kg, po after 2 hrs. Type of data set: ADME, organism-based. The arrangement: dose 10 mg/kg, route oral. Conditions: in vivo.
Data set [5] in a line: Drug level in Sprague-Dawley rat cerebrospinal fluid at 10 mg/kg, po after 2 hrs. In kind it is ADME, organism-based. Also on record: dose 10 mg/kg, route oral. Conditions: read-out: Drug uptake.
The target in another data set is Histamine H2 receptor (Homo sapiens, UniProt P25021). As to the kind of experiment: Inhibition of histamine H2 receptor.
Histamine H2 receptor, sequence (P25021 whole entry): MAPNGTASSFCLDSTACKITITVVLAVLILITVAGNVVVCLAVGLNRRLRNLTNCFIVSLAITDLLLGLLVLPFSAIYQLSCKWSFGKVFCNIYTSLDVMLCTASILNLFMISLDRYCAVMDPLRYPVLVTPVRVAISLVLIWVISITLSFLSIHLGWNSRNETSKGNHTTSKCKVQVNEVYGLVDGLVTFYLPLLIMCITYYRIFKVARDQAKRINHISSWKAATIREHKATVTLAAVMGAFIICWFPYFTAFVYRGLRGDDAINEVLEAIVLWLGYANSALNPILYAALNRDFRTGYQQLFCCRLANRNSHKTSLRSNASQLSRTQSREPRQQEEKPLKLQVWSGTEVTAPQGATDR
The next data set has as its target Histamine H4 receptor (Homo sapiens, UniProt Q9H3N8). As to the kind of experiment: Inhibition of histamine H4 receptor.
In data set [6] the test system is Brain. As to the kind of experiment: Ex vivo binding affinity to histamine H3 receptor in wild type mouse coronal brain sections at 3 nM after 30 mins by receptor occupancy assay. Type of data set: functional, tissue-based. Conditions: tested as the 3H-labelled form.
The target of data set [7] is Histamine H3 receptor (Rattus norvegicus, UniProt Q9QYN8). As to the kind of experiment: Binding affinity to rat histamine H3 receptor by competitive binding assay.
Histamine H3 receptor (Rattus norvegicus, UniProt Q9QYN8), sequence (Q9QYN8 whole entry): as the sequence (P58406 whole entry) above, with A15T, T286A, G290A, H387R, V389I counted along it
The next data set has as its target Histamine H1 receptor (Homo sapiens, UniProt P35367). Kind of data set: Inhibition of histamine H1 receptor.
Data set [8] is described as follows: Plasma concentration in Sprague-Dawley rat at 10 mg/kg, po after 2 hrs. The arrangement: dose 10 mg/kg, route oral. In kind it is ADME, organism-based.
Data set [9] has as its target T1, Histamine H3 receptor. As to the kind of experiment: Binding affinity to histamine H3 receptor in wild type mouse brain membrane. In kind it is cell membranes.
Data set [10] in a line: Lipophilicity, log d at pH 7.4. Conditions: buffer. Type of data set: physicochemical.
Data set [11] deals with T1, Histamine H3 receptor. As to the kind of experiment: Binding affinity to mouse histamine H3 receptor overexpressed in HEK293 cells. Type of data set: cell-based.

Each structure is given as a SMILES string. Active and inactive are the calls of the source. The calls are words filed in the database; no cut-off is given here.

T1 sequence (P58406 whole entry): as the sequence (P58406 whole entry) above
Histamine H1 receptor, sequence (P35367 whole entry): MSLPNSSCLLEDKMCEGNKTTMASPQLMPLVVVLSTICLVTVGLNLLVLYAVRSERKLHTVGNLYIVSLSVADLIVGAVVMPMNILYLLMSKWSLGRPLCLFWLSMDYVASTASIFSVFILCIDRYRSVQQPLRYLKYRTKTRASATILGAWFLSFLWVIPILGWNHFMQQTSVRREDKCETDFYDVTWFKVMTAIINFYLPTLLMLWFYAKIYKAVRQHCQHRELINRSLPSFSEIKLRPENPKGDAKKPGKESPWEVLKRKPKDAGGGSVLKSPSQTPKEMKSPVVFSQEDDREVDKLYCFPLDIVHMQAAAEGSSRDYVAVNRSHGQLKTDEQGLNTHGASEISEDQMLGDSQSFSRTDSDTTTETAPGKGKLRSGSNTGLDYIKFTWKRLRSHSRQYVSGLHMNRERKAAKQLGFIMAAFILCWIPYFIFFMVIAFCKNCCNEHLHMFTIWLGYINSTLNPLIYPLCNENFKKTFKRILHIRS
Histamine H4 receptor, sequence (Q9H3N8 whole entry): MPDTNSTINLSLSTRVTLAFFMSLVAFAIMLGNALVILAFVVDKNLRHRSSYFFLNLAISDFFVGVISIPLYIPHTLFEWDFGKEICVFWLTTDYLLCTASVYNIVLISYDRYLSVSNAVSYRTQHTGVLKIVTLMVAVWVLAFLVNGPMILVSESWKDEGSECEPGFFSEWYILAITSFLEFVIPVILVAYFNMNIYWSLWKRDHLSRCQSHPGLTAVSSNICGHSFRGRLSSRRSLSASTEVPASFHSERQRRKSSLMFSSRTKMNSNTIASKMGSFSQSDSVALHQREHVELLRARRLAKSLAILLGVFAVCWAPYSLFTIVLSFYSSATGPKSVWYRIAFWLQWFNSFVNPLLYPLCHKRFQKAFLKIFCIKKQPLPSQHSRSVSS

On Histamine H3 receptor [1], `NC(=NCc1ccc(Cl)cc1)SCCCc1cnc[nH]1` [CLOBENPROPIT] gave an EC50 of 1.7 nM.
As to `N=C(NCc1ccc(Cl)cc1)SCCCc1c[nH]cn1`, the inhibition in data set [2] amounted to 14%.
Compound `N=C(N)SCCc1cnc[nH]1` [IMETIT] had a Ki on Histamine H3 receptor [3] of 2 nM.
In [2], `Cn1c(-c2ccc(OCCCN3CCCC3)cc2)nc2ccccc2c1=O` showed an inhibition of 24%. Further, the Drug uptake in the data set with Brain [4] is 2.22 nmol/g. Also, the concentration at 2 h in data set [5] turned out to be 0.134 µM; in [8], 1.36 µM. The Ki at Histamine H3 receptor [3] stood at 2.4 nM; at Histamine H3 receptor [7] it was 12 nM. Also, the concentration for half-maximal inhibition (IC50) at Histamine H2 receptor, on Histamine H4 receptor and against Histamine H1 receptor was more than 10000 nM throughout. Further, the response at Histamine H3 receptor [1] was half-maximal at 9.6 nM (EC50). For the same compound, the result in the data set with Brain [6] was Active.
Turning to `NCCc1c[nH]cn1` [HISTAMINE], the inhibitory constant (Ki) on Histamine H3 receptor [3] came out at 68 nM.
Consider `[3H]C([3H])([3H])n1c(-c2ccc(OCCCN3CCCC3)cc2)nc2ccccc2c1=O`, for which the Kd on Histamine H3 receptor [9] came out at 3.1 nM; at Histamine H3 receptor [11], 2.6 nM. This compound gave a log distribution coefficient (logD) in data set [10] of 1.2.
For `S=C(NC1CCCCC1)N1CCC(c2cnc[nH]2)CC1` [THIOPERAMIDE], the inhibition in [2] is 27%. On Histamine H3 receptor [3], the Ki is 4.8 nM. Besides, the half-maximal effective concentration (EC50) at Histamine H3 receptor [1] came to 11 nM.
With `CNCCc1c[nH]cn1`, the affinity at Histamine H3 receptor [3], expressed as Ki, was 19 nM.

One may read the EC50 as the concentration needed to bring the measured effect to its halfway point. A high value points to a less potent agent. As a reminder, the inhibition is the change of the read-out against control, counted positive when it falls. The low end stands for a weak effect, the high end for a strong effect. As usually defined, the Ki is a measure of affinity in units of concentration, obtained from inhibition or displacement. Broadly, the IC50 is the concentration that inhibits the measured activity by half. A low value points to higher potency. The Kd is the constant that tells how readily two partners part at equilibrium. A lower Kd goes with higher affinity. What is called logD is the decadic logarithm of the distribution of all forms, ionised or not, between an organic phase and buffer at a given pH. A lower logD goes with a more hydrophilic compound.

The values above are taken from ChEMBL document CHEMBL1152391, “Development of a selective and potent radioactive ligand for histamine H(3) receptors: A compound potentially useful for receptor occupancy studies” (Bioorg Med Chem Lett, 2009).
